We go through 12 compounds from ChEMBL document CHEMBL1155993, “5-(2-Pyrimidinyl)-imidazo[1,2-a]pyridines are antibacterial agents targeting the ATPase domains of DNA gyrase and topoisomerase IV” (Bioorg Med Chem Lett, 2009).

In brackets after ≈: the same amount, converted by molar mass.

Assay [1] has as its system Streptococcus pneumoniae. Kind of assay: Antibacterial activity against Streptococcus pneumoniae SP-3 by NCCLS method. The format is functional.
The target of another assay is T1, ParE (Streptococcus pneumoniae, UniProt Q7X1P7).
T1 sequence (Q7X1P7 whole entry): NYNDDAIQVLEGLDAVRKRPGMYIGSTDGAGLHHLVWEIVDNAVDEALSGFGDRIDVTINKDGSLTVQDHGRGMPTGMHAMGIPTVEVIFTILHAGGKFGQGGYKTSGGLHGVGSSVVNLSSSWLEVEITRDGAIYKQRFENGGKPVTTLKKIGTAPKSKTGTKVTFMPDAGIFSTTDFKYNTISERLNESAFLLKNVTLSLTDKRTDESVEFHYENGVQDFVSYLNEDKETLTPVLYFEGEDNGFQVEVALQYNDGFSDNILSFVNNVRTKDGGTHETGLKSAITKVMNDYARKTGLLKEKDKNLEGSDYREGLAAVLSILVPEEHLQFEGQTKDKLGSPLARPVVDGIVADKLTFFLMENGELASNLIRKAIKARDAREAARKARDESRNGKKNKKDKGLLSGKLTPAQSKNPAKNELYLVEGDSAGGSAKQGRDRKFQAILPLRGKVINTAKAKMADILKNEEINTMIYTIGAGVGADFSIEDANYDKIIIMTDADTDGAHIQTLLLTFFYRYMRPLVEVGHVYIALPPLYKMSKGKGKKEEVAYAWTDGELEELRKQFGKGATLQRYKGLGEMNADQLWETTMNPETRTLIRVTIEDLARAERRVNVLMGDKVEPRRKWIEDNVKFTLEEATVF
Kind of assay: Inhibition of Streptococcus pneumoniae SP-3 parE after 30 mins.

For another assay, the system named is Streptococcus pyogenes. As to the kind of experiment: Antibacterial activity against Streptococcus pyogenes SP1-1 by NCCLS method. The format is functional.
The subject of assay [2] is Streptococcus pneumoniae. Kind of assay: Antibacterial activity against fluoroquinolone resistant Streptococcus pneumoniae SP-3765 by NCCLS method. In kind it is functional.
The target of the next assay is DNA gyrase subunit B (Streptococcus pneumoniae serotype 4 (strain ATCC BAA-334 / TIGR4), UniProt P0A4L9). As to the kind of experiment: Inhibition of Streptococcus pneumoniae SP-3 gyrB by enzyme coupled phosphate assay.
Assay [3] has as its system Staphylococcus aureus. Kind of assay: Antibacterial activity against Staphylococcus aureus UC76 by NCCLS method. In kind it is functional, organism-based. The settings on record: read-out: MIC.
Assay [4] relates to Staphylococcus aureus. Kind of assay: Antibacterial activity against methicillin resistant Staphylococcus aureus SA-1417 by NCCLS method. The format is functional.

DNA gyrase subunit B, sequence (P0A4L9 whole entry): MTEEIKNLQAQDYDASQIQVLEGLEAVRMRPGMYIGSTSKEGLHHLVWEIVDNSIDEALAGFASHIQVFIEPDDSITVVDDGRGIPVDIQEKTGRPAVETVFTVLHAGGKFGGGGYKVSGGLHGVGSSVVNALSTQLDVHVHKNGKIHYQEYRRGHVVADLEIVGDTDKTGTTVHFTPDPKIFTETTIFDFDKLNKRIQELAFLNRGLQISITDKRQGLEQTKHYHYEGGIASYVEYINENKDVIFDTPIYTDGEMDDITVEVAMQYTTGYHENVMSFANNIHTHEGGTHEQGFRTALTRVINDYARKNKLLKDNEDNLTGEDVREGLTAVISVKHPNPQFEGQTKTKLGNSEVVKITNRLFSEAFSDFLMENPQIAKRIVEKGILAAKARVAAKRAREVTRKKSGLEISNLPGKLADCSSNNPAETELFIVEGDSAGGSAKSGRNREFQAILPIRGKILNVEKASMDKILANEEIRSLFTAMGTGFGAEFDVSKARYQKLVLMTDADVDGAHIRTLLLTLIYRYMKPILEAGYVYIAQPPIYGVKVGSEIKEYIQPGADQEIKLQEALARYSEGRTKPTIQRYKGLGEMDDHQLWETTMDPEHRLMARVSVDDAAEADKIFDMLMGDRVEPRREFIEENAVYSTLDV

As a reminder, the MIC is the least concentration at which growth counts as inhibited. As a reminder, the IC50 is the point on the concentration scale where inhibition reaches its midpoint. As for `CNC(=O)Nc1cn2c(-c3ncc(C)cn3)cc(-c3cccnc3)cc2n1`, the MIC against Streptococcus pneumoniae [1] came out at 1 µg/mL (≈ 2.78 µM); with Streptococcus pyogenes, 2 µg/mL (≈ 5.56 µM); against Streptococcus pneumoniae [2] it was 0.25 µg/mL (≈ 0.696 µM); with Staphylococcus aureus [3] it was 4 µg/mL (≈ 11.1 µM). In addition, the IC50 was found to be 629 nM on ParE and 92 nM at DNA gyrase subunit B.
Regarding `CCOC(=O)Nc1cn2c(-c3nccc(C)n3)cc(-c3cnc(N(C)C)nc3)cc2n1`, the minimum inhibitory concentration (MIC) with Streptococcus pneumoniae [1] was found to be 0.5 µg/mL (≈ 1.19 µM); in the assay with Streptococcus pyogenes it was 0.25 µg/mL (≈ 0.597 µM); in the assay with Streptococcus pneumoniae [2] it was 0.125 µg/mL (≈ 0.299 µM); in the assay on Staphylococcus aureus [3], 64 µg/mL (≈ 153 µM). The IC50 against ParE is 6220 nM; on DNA gyrase subunit B it was 1380 nM.
On to `CCNC(=O)Nc1cn2c(-c3nccc(C)n3)cc(-c3cnc(N(C)C)nc3)cc2n1`, for which the MIC in the assay on Streptococcus pneumoniae [1] came to 0.25 µg/mL (≈ 0.599 µM); against Streptococcus pyogenes, 0.25 µg/mL (≈ 0.599 µM); against Streptococcus pneumoniae [2] it was 0.125 µg/mL (≈ 0.299 µM); with Staphylococcus aureus [3], 0.5 µg/mL (≈ 1.2 µM). Moreover, the figures for the IC50 against ParE and against DNA gyrase subunit B were 424 nM and 113 nM, respectively.
Regarding `Cc1cnc(-c2cc(-c3cccnc3)cc3nc(NC(=O)N(C)C(F)(F)F)cn23)nc1`, the MIC in the assay on Streptococcus pneumoniae [1] stood at 0.25 µg/mL (≈ 0.585 µM); against Streptococcus pyogenes it was 16 µg/mL (≈ 37.4 µM); in the assay on Streptococcus pneumoniae [2], 0.125 µg/mL (≈ 0.292 µM); in the assay on Staphylococcus aureus [3] it was 8 µg/mL (≈ 18.7 µM); against Staphylococcus aureus [4] it was 4 µg/mL (≈ 9.36 µM). Besides, the IC50 came to 504 nM against ParE and 368 nM against DNA gyrase subunit B.
Take `CCNC(=O)Nc1cn2c(-c3ncc(CC)cn3)cc(-c3cccnc3)cc2n1`: the MIC in the assay on Streptococcus pneumoniae [1] is 0.06 µg/mL (≈ 0.155 µM); against Streptococcus pyogenes, 0.125 µg/mL (≈ 0.323 µM); with Streptococcus pneumoniae [2], 0.06 µg/mL (≈ 0.155 µM); with Staphylococcus aureus [3], 0.25 µg/mL (≈ 0.645 µM); with Staphylococcus aureus [4] it was 1 µg/mL (≈ 2.58 µM). Moreover, the IC50 against ParE was determined as 265 nM; at DNA gyrase subunit B, 353 nM.
Turning to `CCCCNC(=O)Nc1cn2c(-c3ncc(C)cn3)cc(-c3cccnc3)cc2n1`, the MIC amounted to 2 µg/mL (≈ 4.98 µM) with Streptococcus pneumoniae [1], 2 µg/mL (≈ 4.98 µM) in the assay on Streptococcus pyogenes, 0.125 µg/mL (≈ 0.311 µM) in the assay on Streptococcus pneumoniae [2] and 8 µg/mL (≈ 19.9 µM) with Staphylococcus aureus [3]. Also, the results for the 50% inhibitory concentration (IC50) on ParE and against DNA gyrase subunit B were 4750 nM and 261 nM, respectively.
With `CCNC(=O)Nc1cn2c(-c3nc(C)cc(C)n3)cc(-c3cccnc3)cc2n1`, the MIC against Streptococcus pneumoniae [1] was found to be 0.5 µg/mL (≈ 1.29 µM); in the assay with Streptococcus pyogenes, 1 µg/mL (≈ 2.58 µM); in the assay with Streptococcus pneumoniae [2] it was 0.5 µg/mL (≈ 1.29 µM); in the assay with Staphylococcus aureus [3], 1 µg/mL (≈ 2.58 µM); against Staphylococcus aureus [4] it was 4 µg/mL (≈ 10.3 µM). Moreover, the values for the half-maximal inhibitory concentration (IC50) against ParE and on DNA gyrase subunit B were 541 nM and 198 nM, respectively.
In the case of `CCNC(=O)Nc1cn2c(-c3ncccn3)cc(-c3cncnc3)cc2n1`, the MIC came out at 0.125 µg/mL (≈ 0.347 µM) against Streptococcus pneumoniae [1], 0.5 µg/mL (≈ 1.39 µM) against Streptococcus pyogenes, 0.125 µg/mL (≈ 0.347 µM) in the assay on Streptococcus pneumoniae [2] and 0.5 µg/mL (≈ 1.39 µM) with Staphylococcus aureus [3]. The 50% inhibitory concentration (IC50) turned out to be 280 nM on ParE and 75 nM against DNA gyrase subunit B.
In the case of `CCNC(=O)Nc1cn2c(-c3nc(C)cc(C(F)(F)F)n3)cc(-c3cccnc3)cc2n1`, the MIC against Streptococcus pneumoniae [1] is 0.25 µg/mL (≈ 0.566 µM); against Streptococcus pyogenes, 0.5 µg/mL (≈ 1.13 µM); against Streptococcus pneumoniae [2], 0.125 µg/mL (≈ 0.283 µM); with Staphylococcus aureus [3], 0.5 µg/mL (≈ 1.13 µM); in the assay on Staphylococcus aureus [4], 1 µg/mL (≈ 2.27 µM). Further, the values for the IC50 on ParE and against DNA gyrase subunit B were 546 nM and 216 nM, respectively.
With `CCNC(=O)Nc1cn2c(-c3nc(C(F)(F)F)cc(C(F)(F)F)n3)cc(-c3cccnc3)cc2n1`, the MIC with Streptococcus pneumoniae [1] was 0.25 µg/mL (≈ 0.505 µM); with Streptococcus pyogenes it was 1 µg/mL (≈ 2.02 µM); against Streptococcus pneumoniae [2] it was 0.125 µg/mL (≈ 0.252 µM); with Staphylococcus aureus [3] it was 2 µg/mL (≈ 4.04 µM); with Staphylococcus aureus [4], 4 µg/mL (≈ 8.07 µM). The half-maximal inhibitory concentration (IC50) at ParE came out at 745 nM; at DNA gyrase subunit B it was 242 nM.
As to `CCNC(=O)Nc1cn2c(-c3ncc(F)cn3)cc(-c3cccnc3)cc2n1`, the MIC is 0.125 µg/mL (≈ 0.331 µM) in the assay with Streptococcus pneumoniae [1], 0.5 µg/mL (≈ 1.32 µM) against Streptococcus pyogenes, 0.125 µg/mL (≈ 0.331 µM) in the assay on Streptococcus pneumoniae [2] and 1 µg/mL (≈ 2.65 µM) in the assay on Staphylococcus aureus [3]. Besides, the results for the half-maximal inhibitory concentration (IC50) on ParE and at DNA gyrase subunit B were 364 nM and 56 nM, respectively.
As for `CCNC(=O)Nc1cn2c(-c3nccc(C(=O)OC)n3)cc(-c3cccnc3)cc2n1`, the MIC in the assay on Streptococcus pneumoniae [1] was found to be 16 µg/mL (≈ 38.3 µM); in the assay on Streptococcus pyogenes, 32 µg/mL (≈ 76.7 µM); against Streptococcus pneumoniae [2], 16 µg/mL (≈ 38.3 µM); in the assay with Staphylococcus aureus [3], 8 µg/mL (≈ 19.2 µM); in the assay with Staphylococcus aureus [4], 8 µg/mL (≈ 19.2 µM). Also, the IC50 against ParE is 911 nM; on DNA gyrase subunit B it was 52 nM.
